Data published in paper PMC12274840 (The Journal of Biological Chemistry, 2025).
Values after ≈ are worked out from the molar mass of the structure shown. Read-outs that look alike come from different tables or passages of the source.

Columns and labels:
[1] = test system: E. coli KA797 cells carrying NmcA position 105 library; assay type: cell-based
[2] = test system: E. coli KA797 cells carrying CTX-M-14 position 105 library; assay type: cell-based; conditions: CTX-M-14 WT (Tyr 105)
[3] = test system: E. coli KA797 cells carrying pUK21 with BlaC WT (Tat); test: microbe, parasite or virus in culture; assay type: cell-based; conditions: Escherichia coli, antibiotic alone
[4] = test system: E. coli KA797 cells carrying pUK21 vector without the β-lactamase gene; test: microbe, parasite or virus in culture; assay type: cell-based; conditions: Escherichia coli; antibiotic alone; pUK21 without β-lactamase gene; read-out: MIC
[5] = test system: E. coli KA797 cells carrying pUK21 with NmcA (pelB/Sec); test: microbe, parasite or virus in culture; assay type: cell-based; conditions: Escherichia coli, antibiotic alone
[6] = test system: E. coli KA797 cells carrying BlaC position 105 library; assay type: cell-based, Escherichia coli; conditions: for Fi AVG (average fitness): relative to WT Ile; for Fi AVG (average fitness) / Fi MEM AVG: average of replicates; for Fi MEM 1: replicate 1; for Fi MEM 2: replicate 2; for Fi MEM 3: replicate 3

C[C@@H](O)[C@H]1C(=O)N2C(C(=O)O)=C(S[C@@H]3CN[C@H](C(=O)N(C)C)C3)[C@H](C)[C@H]12 [meropenem]
Fi (relative fitness), Replicate 1 ([1]; NmcA AA 105 Ala): -0.381 | Fi AVG (average fitness of replicates) ([1]; NmcA AA 105 Ala): -0.261 | Significance of average fitness ([1]; NmcA AA 105 Ala): - | Fi (relative fitness), Replicate 1 ([1]; NmcA AA 105 Arg): 0.092 | Fi AVG (average fitness of replicates) ([1]; NmcA AA 105 Arg): 0.048 | Fi (relative fitness), Replicate 1 ([1]; NmcA AA 105 Asn): 0.031 | Fi AVG (average fitness of replicates) ([1]; NmcA AA 105 Asn): 0.087 | Fi (relative fitness), Replicate 1 ([1]; NmcA AA 105 Asp): -0.205 | Fi AVG (average fitness of replicates) ([1]; NmcA AA 105 Asp): -0.182 | Significance of average fitness ([1]; NmcA AA 105 Asp): - | Fi (relative fitness), Replicate 1 ([1]; NmcA AA 105 Cys): -0.468 | Fi AVG (average fitness of replicates) ([1]; NmcA AA 105 Cys): -0.282 | Significance of average fitness ([1]; NmcA AA 105 Cys): - | Fi (relative fitness), Replicate 1 ([1]; NmcA AA 105 Gln): 0.037 | Fi AVG (average fitness of replicates) ([1]; NmcA AA 105 Gln): 0.055 | Fi (relative fitness), Replicate 1 ([1]; NmcA AA 105 Glu): -0.016 | Fi AVG (average fitness of replicates) ([1]; NmcA AA 105 Glu): -0.061 | Fi (relative fitness), Replicate 1 ([1]; NmcA AA 105 Gly): 0.015 | Fi AVG (average fitness of replicates) ([1]; NmcA AA 105 Gly): -0.027 | Fi (relative fitness), Replicate 1 ([1]; NmcA AA 105 His): 0.000 | Fi AVG (average fitness of replicates) ([1]; NmcA AA 105 His): 0.000 | Fi AVG (average fitness of replicates) ([1]; NmcA AA 105 Ile): 0.105 | Significance of average fitness ([1]; NmcA AA 105 Ile): + | Fi (relative fitness), Replicate 1 ([1]; NmcA AA 105 Leu): -0.100 | Fi AVG (average fitness of replicates) ([1]; NmcA AA 105 Leu): -0.100 | Significance of average fitness ([1]; NmcA AA 105 Leu): - | Fi (relative fitness), Replicate 1 ([1]; NmcA AA 105 Lys): -0.081 | Fi AVG (average fitness of replicates) ([1]; NmcA AA 105 Lys): -0.032 | Fi (relative fitness), Replicate 1 ([1]; NmcA AA 105 Met): -0.00142 | Fi AVG (average fitness of replicates) ([1]; NmcA AA 105 Met): 0.024 | Fi (relative fitness), Replicate 1 ([1]; NmcA AA 105 Phe): 0.169 | Fi AVG (average fitness of replicates) ([1]; NmcA AA 105 Phe): 0.140 | Significance of average fitness ([1]; NmcA AA 105 Phe): + | Fi (relative fitness), Replicate 1 ([1]; NmcA AA 105 Pro): -0.067 | Fi AVG (average fitness of replicates) ([1]; NmcA AA 105 Pro): -0.060 | Significance of average fitness ([1]; NmcA AA 105 Pro): - | Fi (relative fitness), Replicate 1 ([1]; NmcA AA 105 Ser): -0.066 | Fi AVG (average fitness of replicates) ([1]; NmcA AA 105 Ser): -0.071 | Significance of average fitness ([1]; NmcA AA 105 Ser): - | Fi (relative fitness), Replicate 1 ([1]; NmcA AA 105 Thr): -0.118 | Fi AVG (average fitness of replicates) ([1]; NmcA AA 105 Thr): -0.120 | Significance of average fitness ([1]; NmcA AA 105 Thr): - | Fi (relative fitness), Replicate 1 ([1]; NmcA AA 105 Trp): 0.105 | Fi AVG (average fitness of replicates) ([1]; NmcA AA 105 Trp): 0.078 | Fi (relative fitness), Replicate 1 ([1]; NmcA AA 105 Tyr): -0.154 | Fi AVG (average fitness of replicates) ([1]; NmcA AA 105 Tyr): -0.163 | Significance of average fitness ([1]; NmcA AA 105 Tyr): - | Fi (relative fitness), Replicate 1 ([1]; NmcA AA 105 Val): -0.043 | Fi AVG (average fitness of replicates) ([1]; NmcA AA 105 Val): -0.035 | WT abs Fi 1 (absolute fitness) ([1]; NmcA WT, replicate 1): 0.00454 | WT abs Fi 2 (absolute fitness) ([1]; NmcA WT, replicate 2): 0.092 | WT abs Fi 3 (absolute fitness) ([1]; NmcA WT, replicate 3): 0.017 | WT abs Fi 1 (absolute fitness of wild type, Replicate 1) [2]: -0.645 | WT abs Fi 2 (absolute fitness of wild type, Replicate 2) [2]: -0.807 | MIC [3]: 0.1 µg/mL (≈ 0.261 µM) | MIC [4]: 0.05 µg/mL (≈ 0.13 µM) | MIC [5]: 1.6 µg/mL (≈ 4.17 µM) | Fi AVG (average fitness) ([6]; AA 105 Ala (BlaC I105A)): -0.028 | Fi MEM AVG ([6]; AA 105 Ala, meropenem): -0.183 | Fi MEM 1 ([6]; AA 105 Ala, meropenem): -0.183 | Fi MEM AVG ([6]; AA 105 Arg, meropenem): -0.097 | Fi MEM 1 ([6]; AA 105 Arg, meropenem): 0.189 | Fi MEM 2 ([6]; AA 105 Arg, meropenem): 0.262 | Fi MEM 3 ([6]; AA 105 Arg, meropenem): -0.743 | Fi AVG (average fitness) ([6]; AA 105 Asn (BlaC I105N)): -0.021 | Fi MEM AVG ([6]; AA 105 Asn, meropenem): -0.526 | Fi MEM 1 ([6]; AA 105 Asn, meropenem): 0.793 | Fi MEM 2 ([6]; AA 105 Asn, meropenem): -1.824 | Fi MEM 3 ([6]; AA 105 Asn, meropenem): -0.547 | Fi AVG (average fitness) ([6]; AA 105 Asp (BlaC I105D)): -0.059 | Significance (Fi MEM AVG) ([6]; AA 105 Asp, meropenem): - | Fi MEM AVG ([6]; AA 105 Asp, meropenem): -1.181 | Fi MEM 1 ([6]; AA 105 Asp, meropenem): -1.339 | Fi MEM 2 ([6]; AA 105 Asp, meropenem): -1.644 | Fi MEM 3 ([6]; AA 105 Asp, meropenem): -0.561 | Fi MEM AVG ([6]; AA 105 Cys, meropenem): -0.623 | Fi MEM 1 ([6]; AA 105 Cys, meropenem): -1.368
